Laboratory results published in US20110229505A1, “Methods for the diagnosis and treatment of cancer based on AVL9” (IMMATICS BIOTECHNOLOGIES GMBH, priority 2010, published 2011).

Tested on: CD8+ T cells of healthy HLA-A*24 donors
Test: In vitro immunogenicity for MHC class I presented peptides (aAPC priming, A*2402 multimer staining)
Assay type: cell-based, human
Settings: in vitro priming of CD8+ T cells with peptide-loaded HLA-A*2402/anti-CD28 beads, three stimulation cycles
Experimental: CD8 T cells were either directly enriched from the leukapheresis product or PBMCs (peripheral blood mononuclear cells) were isolated first by using standard gradient separation medium (PAA, Cölbe, Germany). Isolated CD8 lymphocytes or PBMCs were incubated until use in T-cell medium (TCM) consisting of RPMI-Glutamax (Invitrogen, Karlsruhe, Germany) supplemented with 10% heat inactivated human AB serum (PAN-Biotech, Aidenbach, Germany), 100 U/ml Penicillin/100 μg/ml Streptomycin (Cambrex, Cologne, Germany), 1 mM sodium pyruvate (CC Pro, Oberdorla, Germany), 20 μg/ml Gentamycin (Cambrex). […] Isolation of CD8+ lymphocytes was performed by positive selection using CD8 MicroBeads (Miltenyi Biotec, Bergisch-Gladbach, Germany).
800.000 beads/200 μl were coated in 96-well plates in the presence of 600 ng biotin anti-CD28 plus 200 ng relevant biotin-pMHC (high density beads). Stimulations were initiated in 96-well plates by co-incubating 1×10^6 CD8+ T cells with 2×10^5 washed coated beads in 200 μl TCM supplemented with 5 ng/ml IL-12 (PromoCell) for 3-4 days at 37° C. […] Peptide specific cells were calculated as percentage of total CD8+ cells. […] In vitro priming of specific multimer+ CD8+ lymphocytes was detected by appropriate gating and by comparing to negative control stimulations.

1 (FYISPVNKL; listed as Homo sapiens) [compound 1]
Positive donors/donors tested [%] (among evaluable donors): 100%
Positive wells/wells tested [%] (among evaluable wells): 50%
